Data set [1] relates to L-6-hydroxynicotine oxidase (LHNO, 3NG7), wild type, SEQ ID NO:13. Particulars: cited from earlier work; for kcat/Km: wild-type LHNO.
For data set [2] the following is noted: cited from earlier work.
In a further data set the test system is Escherichia coli. Nature of the data set: toxicity to E. coli. The format is cell-based. The protocol:
Directed evolution is a powerful means to improve enzyme function. […] The experiments are performed using the fast-growing model organism, Escherichia coli, which permits evaluation of many variants of NicA2 for performance-enhancing mutations. […] Identification of these variants is expected to reveal the molecular determinants of wild-type NicA2's low O2-dependent activity.
Directed evolution is a powerful means to improve enzyme function. […] The experiments were performed using the fast-growing model organism, Escherichia coli, which permitted evaluation of many variants of NicA2 for performance-enhancing mutations. […] Identification of these variants is expected to reveal the molecular determinants of wild-type NicA2's low O2-dependent activity.

Data set [3] concerns the target T1, Pseudomonas putida S16 nicotine oxidoreductase NicA2, wild type, SEQ ID NO:131 (Pseudomonas putida, UniProt F8G0P2). Particulars: estimated from reported doubling time of one hour.
Target sequence in this assay (F8G0P2 39-482): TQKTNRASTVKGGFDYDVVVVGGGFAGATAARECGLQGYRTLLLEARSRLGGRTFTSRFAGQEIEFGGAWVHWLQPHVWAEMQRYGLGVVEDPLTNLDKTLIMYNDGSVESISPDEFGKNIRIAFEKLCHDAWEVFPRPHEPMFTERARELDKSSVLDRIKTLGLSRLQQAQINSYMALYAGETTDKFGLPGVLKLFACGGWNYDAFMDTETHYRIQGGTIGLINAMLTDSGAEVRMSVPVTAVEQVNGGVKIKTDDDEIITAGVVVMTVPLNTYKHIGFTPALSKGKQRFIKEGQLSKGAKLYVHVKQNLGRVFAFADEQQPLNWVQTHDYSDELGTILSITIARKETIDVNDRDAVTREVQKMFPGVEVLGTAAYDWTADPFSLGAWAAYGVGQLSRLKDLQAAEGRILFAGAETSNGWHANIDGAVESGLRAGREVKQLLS
Data set [4] deals with T1, Pseudomonas putida S16 nicotine oxidoreductase NicA2, wild type, SEQ ID NO:131. The note with it: anaerobic, pH 7.5, 4° C., 450 nm.
Target sequence in this assay (F8G0P2 2-482): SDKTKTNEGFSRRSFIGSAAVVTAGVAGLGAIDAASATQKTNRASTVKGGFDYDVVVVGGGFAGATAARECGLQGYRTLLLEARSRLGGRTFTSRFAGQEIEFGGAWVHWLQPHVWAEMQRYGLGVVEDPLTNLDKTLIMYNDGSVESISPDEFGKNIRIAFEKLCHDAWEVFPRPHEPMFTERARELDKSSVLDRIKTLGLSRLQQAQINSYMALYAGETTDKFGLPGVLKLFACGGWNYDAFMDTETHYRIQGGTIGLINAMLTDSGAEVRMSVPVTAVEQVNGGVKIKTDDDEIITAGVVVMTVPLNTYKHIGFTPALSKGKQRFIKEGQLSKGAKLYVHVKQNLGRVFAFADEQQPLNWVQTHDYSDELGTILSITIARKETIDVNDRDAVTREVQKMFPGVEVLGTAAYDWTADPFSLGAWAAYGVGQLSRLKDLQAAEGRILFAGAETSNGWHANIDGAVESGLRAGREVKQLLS
Experimental: All stopped-flow experiments were performed in 40 mM HEPES-KOH, pH 7.5, 100 mM NaCl, 10% glycerol at 4° C. NicA2 and CycN solutions were made anaerobic in glass tonometers by repeated cycles with vacuum and anaerobic argon^42. When needed, NicA2's FAD was reduced in the anaerobic tonometer by titrating with a dithionite solution housed in a gas-tight Hamilton syringe. The dithionite solution was slowly added up to the point where NicA2's flavin reached the fully-reduced hydroquinone state, and the redox status of the flavin was spectrophotometrically monitored during the titration using a Shimadzu UV-1900 UV-VIS spectrophotometer. […] The various O2/N2 gas ratios were prepared from O2 and N2 gas cylinders using a Maxtec MaxBlend 2 gas mixer, and the dissolved O2 concentration in the buffer solution was calculated using a Henry's law constant for O2 of 770 atm M^−1.
Stopped-flow experiments were conducted using a TgK Scientific SF-61 DX2 KinetAsyst stopped-flow instrument that had been previously equilibrated with a glucose/glucose oxidase solution to make the internal components of the system anaerobic. […] The reaction of NicA2-Flred with O2 was monitored using the instrument's multi-wavelength CCD detector (1.6 ms data interval time). […]
The subject of data set [5] is Pseudomonas putida S16 nicotine oxidoreductase NicA2, wild type, SEQ ID NO:131. The note with it: in vitro, cited from earlier work.
The target in data set [6] is T1, Pseudomonas putida S16 nicotine oxidoreductase NicA2, wild type, SEQ ID NO:131. The note with it: WT P. putida S16; about 5 mM nicotine degraded by about 3.5 nM NicA2 in 16 hours.
Target sequence in this assay (F8G0P2 39-482): as the sequence (F8G0P2 39-482) above
Experimental: Both wild-type and ΔcycN strains were grown overnight in LB. The next day, these cultures were diluted to OD 0.1 in 5 mL M9 salts+0.4% glycerol and allowed to grow for 2 hours. […] From then on, the cultures were sampled at 2, 4, 8, 24, and 49 hours. 200 μL of culture was extracted at each time point and spun down at 16,000 g for 10 minutes. The supernatant was isolated, and 100 μL supernatant was mixed with 300 μL methanol to prepare HPLC samples. The cell pellet was resuspended in 100 μL Bacterial Protein Extraction Reagent (B-PER; Thermo Fisher) and allowed to incubate at room temperature for 15 minutes to complete lysis. After this time had elapsed, 25 μL of 5× reducing gel loading buffer was added to each sample.
Samples for HPLC were further clarified by spinning at 16,000 g for 30 minutes. 100 μL of each clarified sample was placed into autosampler vials. […] Samples and standards were within the linear range of detection, and the absorbance peaks were integrated for quantification.
Samples for western blot analysis were boiled for 5 minutes. […] Protein bands were quantified using LI-COR Odyssey software, and the NicA2 standard curve was used to determine the linear range of detection and concentration of NicA2 at each time point from the experiment.
Data set [7] shares this target.
Target sequence in this assay (F8G0P2 2-482): as the sequence (F8G0P2 2-482) above
Experimental: All stopped-flow experiments were performed in 40 mM HEPES-KOH, pH 7.5, 100 mM NaCl, 10% glycerol at 4° C. NicA2 and CycN solutions were made anaerobic in glass tonometers by repeated cycles with vacuum and anaerobic argon^42. When needed, NicA2's FAD was reduced in the anaerobic tonometer by titrating with a dithionite solution housed in a gas-tight Hamilton syringe. The dithionite solution was slowly added up to the point where NicA2's flavin reached the fully-reduced hydroquinone state, and the redox status of the flavin was spectrophotometrically monitored during the titration using a Shimadzu UV-1900 UV-VIS spectrophotometer. […] Buffer containing O2 at specific concentrations was prepared by sparging different O2/N2 gas ratios through buffer in a gas-tight syringe for at least 15 minutes at room temperature. The various O2/N2 gas ratios were prepared from O2 and N2 gas cylinders using a Maxtec MaxBlend 2 gas mixer, and the dissolved O2 concentration in the buffer solution was calculated using a Henry's law constant for O2 of 770 atm M^−1.
Stopped-flow experiments were conducted using a TgK Scientific SF-61 DX2 KinetAsyst stopped-flow instrument that had been previously equilibrated with a glucose/glucose oxidase solution to make the internal components of the system anaerobic. […] The reaction of NicA2-Flred with O2 was monitored using the instrument's multi-wavelength CCD detector (1.6 ms data interval time). […] Kinetic traces were fit to sums of exponentials using KaleidaGraph (Synergy Software) to determine observed rate constants.
We next monitored the reaction of NicA2-Flred with O2 in the oxidative half reaction via stopped-flow experiments.

Several values for one entry are separate records, joined by “and”; a condition that tells them apart may be missing. Equal values may be shown once. Read-outs that look alike come from different tables or passages of the source.

Turning to `CN1CCC[C@H]1c1ccc(O)nc1` [L-6-hydroxynicotine], in data set [1] (O2 as the electron acceptor for flavin oxidation, substrate L-6-hydroxynicotine), the kcat is 78 s⁻¹. Besides, the kcat/Km in data set [1] was 600000 M⁻¹ s⁻¹.

Take `CN1CCC[C@H]1c1cccnc1` [L-nicotine]: the kcat/Km in data set [1] is 42 M⁻¹ s⁻¹.

Turning to `CNCCCC(=O)c1cccnc1` [pseudooxynicotine], in data set [2], the “addictiveness in animal models” value is recorded as “non-addictive” and the “toxicity in animal models” value was “non-toxic”. Also, the “concentration up to which non-toxic to E. coli” value with Escherichia coli (e. coli culture) is “at least 5 mg/mL”.

On to `CN1CCC[C@H]1c1cccnc1` [nicotine], for which the “in vivo turnover rate (kcat)” value in data set [3] was 1 s⁻¹. In data set [4], the “kobs (fastest phase, reduction of NicA2's FAD by nicotine)” value was “about 180 s^−1”. Moreover, the “turnover number (O2-dependent nicotine turnover)” value in data set [5] (O2 as electron acceptor) is 0.007 s⁻¹. Also, the “kcat (conversion of nicotine to pseudooxynicotine)” value in data set [5] (oxygen as electron acceptor) was 0.007 s⁻¹. For the same compound, the “concentration toxic to E. coli” value in the data set with Escherichia coli (about this level or higher) is “about 1 mg/mL”. The “in vivo turnover rate” value in data set [6] is “about 24 s^−1”. Besides, the “kcat for degrading nicotine relative to NicA2” value in data set [1] (oxygen dependent reaction) was 5 fold.

Regarding `O=O` [O2, molecular oxygen], the “kobs of NicA2-Flred oxidation by O2” value in data set [7] (at ~250 μM O2, calculated from bimolecular rate constant) is 0.007 s⁻¹. In addition, the “bimolecular rate constant for flavin oxidation by O2 (kox^O2)” value in data set [7] (pH 7.5, 4° C., 450 nm) was 27 ± 1 M⁻¹ s⁻¹ and 27 M⁻¹ s⁻¹. In addition, the kcat in data set [1] (reaction with oxygen) is 78 s⁻¹.

In general, kcat refers to the number of substrate molecules converted per active site and unit of time at saturation. As a reminder, the kcat/Km is the turnover number divided by the Michaelis constant.
